# Measured values reported in ChEMBL document CHEMBL6120974, “Hydrazide-Based Class I Selective HDAC Inhibitors Completely Reverse Chemoresistance Synergistically in Platinum-Resistant Solid Cancer Cells” (J Med Chem, 2024).
# Activity calls are given as the source filed them. The calls are words filed in the database; no cut-off is given here.
# Key:
# CAL-27 [1] = assay: cells; conditions: Homo sapiens, CAL-27, 72 h
# Description: Cytotoxicity against human CAL-27 cells assessed as reduction in cell viability incubated for 72 hrs by MTT assay
# cells [2] = conditions: Homo sapiens, Cal27CisR
# Description: Inhibition of class IIa/8 HDAC (unknown origin) in cisplatin resistant human Cal27CisR cells using Boc-Lys(TFA)-AMC as substrate preincubated with compound for 18 hrs followed by substrate addition and measured after 3 hrs by NOVOstar microplate reader analysis
# Cal27CisR [3] = assay: Induction of apoptosis in cisplatin resistant human Cal27CisR cells assessed as increase in Bcl-2 protein level at 0.316 uM incubated for 48 hrs by Immunoblotting analysis; type: functional, cell-based
# Cal27CisR [4] = assay: Induction of apoptosis in cisplatin resistant human Cal27CisR cells assessed as increase in apoptotic nuclei at sub-G1 phase at 0.316 uM in presence of cisplatin at 3 uM preincubated with compound for 48 hrs prior to addition of cisplatin and measured after 24 hrs by flow cytometric analysis; type: functional, cell-based; conditions: time 72.0 hrs
# A2780cisR [5] = assay: Downregulation of BAX expression in cisplatin resistant human A2780 cisR cells at 2 uM incubated for 48 hrs by Immunoblotting analysis; type: functional, cell-based
# CAL-27 [6] = assay: Downregulation of survivin expression in human CAL-27 cells at 0.316 uM incubated for 48 hrs by Immunoblotting analysis; type: functional, cell-based
# cells [7] = conditions: Homo sapiens, A2780
# Description: Inhibition of class IIa/8 HDAC (unknown origin) in human A2780 cells using Boc-Lys(TFA)-AMC as substrate preincubated with compound for 18 hrs followed by substrate addition and measured after 3 hrs by NOVOstar microplate reader analysis
# A2780cisR [8] = assay: Induction of apoptosis in cisplatin resistant human A2780 cisR cells assessed as increase in caspase 3/7 activation at 2 uM in presence of cisplatin preincubated with compound for 48 hrs co-treated with cisplatin and measured after 24 hrs by capase3/7 green dye based analysis; type: functional, cell-based; conditions: time 72.0 hrs
# CAL-27 [9] = assay: Downregulation of survivin expression in human CAL-27 cells at 0.316 uM in presence of cisplatin at 3 uM preincubated with compound for 48 hrs prior to addition of cisplatin and measured after 24 hrs by Immunoblotting analysis; type: functional, cell-based; conditions: time 72.0 hrs
# [10] = Solubility of the compound in PBS buffer at pH 7.4 incubated for 72 hrs by HPLC/UV analysis; type: physicochemical
# A2780 [11] = assay: Induction of apoptosis in human A2780 cells assessed as decrease in Bcl-2 protein level at 0.75 uM incubated for 48 hrs by Immunoblotting analysis; type: functional, cell-based
# cells [12] = conditions: Homo sapiens, CAL-27
# Description: Inhibition of class IIa/8 HDAC (unknown origin) in human CAL-27 cells using Boc-Lys(TFA)-AMC as substrate preincubated with compound for 18 hrs followed by substrate addition and measured after 3 hrs by NOVOstar microplate reader analysis
# A2780 [13] = assay: Induction of apoptosis in human A2780 cells assessed as increase in caspase 3/7 activation at 0.75 uM in presence of cisplatin preincubated with compound for 48 hrs co-treated with cisplatin and measured after 24 hrs by capase3/7 green dye based analysis; type: functional, cell-based; conditions: time 72.0 hrs
# CAL-27 [14] = assay: Induction of cell cycle arrest in human CAL-27 cells assessed as increase in p21 expression at 0.316 uM incubated for 48 hrs by Western blotting analysis; type: functional, cell-based
# Cal27CisR [15] = assay: Induction of apoptosis in cisplatin resistant human Cal27CisR cells assessed as decrease in p21 expression at 0.316 uM in presence of cisplatin at 16.5 uM preincubated with compound for 24 to 72 hrs prior to addition of cisplatin and measured after 24 hrs by Immunoblotting analysis; type: functional, cell-based; conditions: time 48-96 hrs
# Cal27CisR [16] = assay: Induction of apoptosis in cisplatin resistant human Cal27CisR cells assessed as decrease in p21 expression at 0.316 uM incubated for 24 to 72 hrs by Immunoblotting analysis; type: functional, cell-based; conditions: time 24-72 hrs
# CAL-27 [17] = assay: Induction of apoptosis in human CAL-27 cells assessed as increase in Bcl-2 protein level at 0.316 uM incubated for 48 hrs by Immunoblotting analysis; type: functional, cell-based
# A2780cisR [18] = assay: Induction of apoptosis in cisplatin resistant human A2780 cisR cells assessed as caspase-3/7 activation at 2 uM incubated for 48 hrs by capase3/7 green dye based analysis; type: functional, cell-based
# Cal27CisR [19] = assay: Induction of apoptosis in cisplatin resistant human Cal27CisR cells assessed as increase in caspase 3/7 activation at 0.316 uM in presence of cisplatin preincubated with compound for 48 hrs co-treated with cisplatin and measured after 24 hrs by capase3/7 green dye based analysis; type: functional, cell-based; conditions: time 72.0 hrs
# A2780 [20] = assay: Induction of cell cycle arrest in human A2780 cells assessed as increase in p21 expression at 0.75 uM incubated for 48 hrs by Western blotting analysis; type: functional, cell-based
# cells [21] = conditions: Homo sapiens, A2780; remark: listed apart in the source
# Description: Inhibition of class I/6 HDAC (unknown origin) in human A2780 cells using Boc-Lys(epsilon-Ac)-AMC as substrate preincubated with compound for 18 hrs followed by substrate addition and measured after 3 hrs by NOVOstar microplate reader analysis
# Cal27CisR [22] = assay: Induction of apoptosis in cisplatin resistant human Cal27CisR cells assessed as apoptotic nuclei at sub-G1 phase at 0.316 uM incubated for 48 hrs by flow cytometric analysis; type: functional, cell-based
# A2780cisR [23] = assay: Induction of apoptosis in cisplatin resistant human A2780 cisR cells assessed as decrease in Bcl-2 protein level at 2 uM incubated for 48 hrs by Immunoblotting analysis; type: functional, cell-based
# cells [24] = conditions: Homo sapiens, Cal27CisR, 72 h
# Description: Cytotoxicity against cisplatin resistant human Cal27CisR cells assessed as reduction in cell viability incubated for 72 hrs by MTT assay
# A2780cisR [25] = assay: Induction of cell cycle arrest in cisplatin resistant human A2780 cells assessed as increase in p21 expression at 2 uM incubated for 48 hrs by Western blotting analysis; type: functional, cell-based
# A2780 [26] = assay: Downregulation of BAX expression in human A2780 cells at 0.75 uM incubated for 48 hrs by Immunoblotting analysis; type: functional, cell-based
SMILES,IC50 (CAL-27 [1]) [nM],IC50 (cells [2]) [nM],Activity (Cal27CisR [3]),Activity (Cal27CisR [4]),Activity (A2780cisR [5]),Activity (CAL-27 [6]),IC50 (cells [7]) [nM],Activity (A2780cisR [8]),Activity (CAL-27 [9]),Activity (A2780 [11]),IC50 (cells [12]) [nM],Activity (A2780 [13]),Activity (CAL-27 [14]),Activity (CAL-27 [17]),Activity (A2780cisR [18]),Activity (Cal27CisR [19]),Activity (A2780 [20]),IC50 (cells [21]) [nM],Activity (Cal27CisR [22]),Activity (A2780cisR [23]),other results
CCCNNC(=O)c1ccc(CN(CC(=O)NCc2ccccc2)C(=O)c2ccc(N(C)C)cc2)cc1,660,2320,Not active; Slight Increase Observed,Active,Active,Active,115000,Active,Active,Active,1020,Active,Active,Not active; Slight Increase Observed,Active; Remarkable Activation Observed,Active,Active,235,Active; Moderate Percentage Of Apoptotic Nuclei Observed,Active,solubility at 72 h [10]: 16.8 µg/mL; Activity (Cal27CisR [15]): Active; Activity (Cal27CisR [16]): inactive; IC50 (cells [24]): 801 nM; Activity (A2780cisR [25]): Active; Activity (A2780 [26]): Active
CCCCNNC(=O)c1ccc(CN(CC(=O)NCc2ccccc2)C(=O)c2ccc(N(C)C)cc2)cc1,688,2220,Not active; Slight Increase Observed,Active,Active,Active,15900,Active,Active,Active,1020,Active,Active,Not active; Slight Increase Observed,Active; Remarkable Activation Observed,Active,Active,263,Active; Moderate Percentage Of Apoptotic Nuclei Observed,Active,IC50 (cells [24]): 968 nM; Activity (A2780cisR [25]): Active; Activity (A2780 [26]): Active
